Values of other authors in patent US20110160463A1, “PROCESS FOR MAKING SUBSTITUTED 2-AMINO-THIAZOLONES” (Amgen Inc., priority 2008, published 2011).

Columns and labels:
11βHSD1 [1] = molecular target: T1, 11βHSD1 (Homo sapiens, UniProt P28845); conditions: ingestion, normal subjects
T1 construct: reduce the intraocular pressure by 20% in normal subjects; host or cells: endogenous enzyme in living subjects (eye)
T1 sequence (P28845 whole entry): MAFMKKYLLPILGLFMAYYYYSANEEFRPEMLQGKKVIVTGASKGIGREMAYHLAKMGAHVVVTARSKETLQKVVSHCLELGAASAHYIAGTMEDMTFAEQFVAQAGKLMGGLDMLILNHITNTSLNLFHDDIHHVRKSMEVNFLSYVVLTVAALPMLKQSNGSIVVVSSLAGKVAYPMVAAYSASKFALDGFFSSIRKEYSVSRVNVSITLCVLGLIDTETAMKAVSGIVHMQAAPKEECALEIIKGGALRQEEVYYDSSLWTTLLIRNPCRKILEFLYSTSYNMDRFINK

11βHSD1 [2] = molecular target: T2, 11βHSD1 (Homo sapiens, UniProt P28845); conditions: healthy human volunteers
T2 construct: Hepatic insulin sensitivity was improved in healthy human volunteers; host or cells: endogenous enzyme in human volunteers (liver)
T2 sequence (P28845 whole entry): as above

reduction of the intraocular pressure (11βHSD1 [1]): 20%
hepatic insulin sensitivity (11βHSD1 [2]): improved
Structure (SMILES): CC1(C)[C@@H](OC(=O)CCC(=O)O)CC[C@]2(C)[C@H]3C(=O)C=C4[C@@H]5C[C@@](C)(C(=O)O)CC[C@]5(C)CC[C@@]4(C)[C@]3(C)CC[C@@H]12 [carbenoxolone]
negative effect (of glucocorticoids) on bone nodule formation (bone nodule formation): blocked
